# What was measured:
# [1] = tested on: HepG2 (human hepatocellular carcinoma); test: Alamar blue cytotoxicity assay, HepG2; type: cell-based; conditions: for IC50: HepG2, Alamar blue, 24-h incubation, mean ± S.E.M.
# Excerpt: (§1) Human lung carcinoma (A549, ATCC® CCL-185™), human hepatocellular carcinoma (HepG2, ATCC® HB-8065™), and human breast adenocarcinoma (MDA-MB-231, ATCC® HTB-26™) were obtained from American Type Cell Collection (ATCC). Human melanoma (A-375, BCRJ-0278), Human colorectal adenocarcinoma (Caco-2, BCRJ 0059), human prostate adenocarcinoma (DU-145, BCRJ-0078, and PC-3, BCRJ-0269), human mouth fibroblast (FGH, BCRJ-0089), and human prostate epithelial cells (PNT-2, BCRJ-0366) were obtained from Rio de Janeiro Cells Bank (BCRJ). The cells A549, A-375, Caco-2, DU-145, HepG2, MDA-MB-231, and FGH were cultured in Dulbecco’s Modified Eagle’s Medium (DMEM, Gibco-Invitrogen®), PC-3 and PNT-2 cells were grown in Roswell Park Memorial Institute Medium (RPMI-1640, Gibco-Invitrogen®). Both mediums were supplemented according to the needs of each lineage, as recommended by its cell banks with 2 mM L-glutamine (Gibco-Invitrogen®), 10% or 20% fetal bovine serum (Gibco-Invitrogen®), 1% antibiotic-antimycotic solution (5 mg/ml penicillin, 5 mg/ml streptomycin, and 10 mg/ml neomycin, Gibco-Invitrogen®), and 3.7 g/L of NaHCO3 (Sigma-Aldrich). All cell lines were cultured in flasks at 37°C in 5% CO2 and 96% of relative humidity according to the procedures proposed by ([31]), and a mycoplasma stain kit (Sigma-Aldrich) was used to confirm the use of cells devoid of contamination. The assays were conducted between the third and the seventh-cell passage with sub-cultures every 3 to 4 days to maintain exponential growth. The cell viability was checked using the trypan blue dye exclusion assay for all experiments where over 95% of the cells were viable at the beginning of the tests.
# (§2) The in vitro antiproliferative activity was quantified using the Alamar blue® assay, according to the method reported by ([32]). Cells were seeded in 96-well plates for all experiments (1.5 × 10^4 cells/well). After 24 h, the complexes were dissolved in DMSO and added to each well and incubated for 24 h. Dilutions of the complexes were prepared to obtain concentrations ranging from 0.3 to 100 μM. […] DMSO (0.1% v/v) was used as the vehicle control. Following 24 h of incubation, 50 μl of Alamar blue® (resazurin at 0.01% w/v, Sigma-Aldrich) was added to each well, and the plates were incubated, at 37°C, in the dark. Fluorescence reading was performed in a Synergy H1 Fluorescence Spectrophotometer (BioTek®), using excitation and emission filters at wavelengths of 560 and 590 nm, respectively. The fluorescence intensity was measured in arbitrary fluorescence units (AFU) and the AFU of untreated cells (CTL) was considered 100%. The cytotoxic effects of the compounds were estimated in terms of cell proliferation inhibition (%) and expressed as half-maximal inhibitory concentration (IC50). The cell proliferation inhibition percentage of cells exposed to treatments was calculated following: % Inhibition = 100 − (AFU of treated well/AFU of control well) × 100). The IC50 values were calculated from the cell proliferation inhibition percentage by nonlinear regression method using CompusSyn® Software.
# [2] = tested on: FGH (human mouth fibroblast); test: Alamar blue cytotoxicity assay, FGH non-cancer cells; type: cell-based; conditions: 24-h incubation, mean ± S.E.M.
# Excerpt: as §1, §2
# [3] = tested on: DU-145 cells; test: Clonogenic assay; type: cell-based, human; conditions: 24 h treatment, colonies after 7 days
# Procedure: The clonogenic assay was performed in accordance with the guidelines of ([34]). […] DMSO (0.1% v/v) was used as the vehicle control. After 24 h, the cells were washed with PBS (Gibco-Invitrogen®) and harvested by trypsinization. Cells were counted using a Neubauer chamber and replated then on cell culture dishes of 21.5 cm^2 in a density of 200 cells per culture dish for each treatment in triplicate. After 7 days, cells were fixed in ice-cold methanol: acetic acid: distilled water (1:1:8), air-dried, and stained with crystal violet (0.5% w/v, Sigma-Aldrich) for 20 min. Colonies with at least 50 cells were counted. Plating efficiency (PE) of DU-145 cells was calculated by the ratio of the number of colonies observed after 7 days of incubation to the number of cells seeded (two hundred). The average of colonies in control was considered as 100%, and the number of colonies that arise after treatment of cells is called the surviving fraction (SF), obtained by:
# SF = Numberofcoloniescountedineachtreatment/Numberofcoloniescountedincontrol x PE × 100
# [4] = tested on: PC-3 (human prostate adenocarcinoma); test: Alamar blue cytotoxicity assay, PC-3; type: cell-based; conditions: for IC50: PC-3, Alamar blue, 24-h incubation, mean ± S.E.M.
# Excerpt: as §1, §2
SMILES,IC50 [1] [nM],Selectivity index (SI) ([1]; SI = IC50[FGH]/IC50[HepG2]),Selectivity index (SI) ([1]; SI = IC50[PNT-2]/IC50[HepG2]),IC50 [2] [nM],"survival fraction (SF) ([3]; DU-145, 0.125 μM) [%]","survival fraction (SF) ([3]; DU-145, 0.25 μM) [%]","survival fraction (SF) ([3]; DU-145, 0.5 μM) [%]","survival fraction (SF) ([3]; DU-145, 1.0 μM) [%]","survival fraction (SF) ([3]; DU-145, 1.5 μM) [%]",IC50 [4] [nM],Selectivity index (SI) ([4]; SI = IC50[FGH]/IC50[PC-3]),Selectivity index (SI) ([4]; SI = IC50[PNT-2]/IC50[PC-3])
"CC(C)=CCC1=C([O-])C(=O)c2ccccc2C1=O.F[P-](F)(F)(F)(F)F.[Ru+2].c1ccc(-c2ccccn2)nc1.c1ccc(P(CP(c2ccccc2)c2ccccc2)c2ccccc2)cc1 [complex (1), [Ru(Lap)(dppm)(bipy)]PF6]",1700 ± 500,1.8,3.5,3100 ± 200,65.1,35.1,18.3,9.0,4.3,1300 ± 400,2.4,4.5
"CC(C)=CCC1=C([O-])C(=O)c2ccccc2C1=O.F[P-](F)(F)(F)(F)F.[Ru+2].c1ccc(P(CP(c2ccccc2)c2ccccc2)c2ccccc2)cc1.c1cnc2c(c1)ccc1cccnc12 [complex (2), [Ru(Lap)(dppm)(phen)]PF6]",1500 ± 200,1.7,4.5,2500 ± 300,58.0,17.7,4.3,0,0,1100 ± 300,2.2,6.2

# — paper PMC8264259, “A Novel Ruthenium(II) Complex With Lapachol Induces G2/M Phase Arrest Through Aurora-B Kinase Down-Regulation and ROS-Mediated Apoptosis in Human Prostate Adenocarcinoma Cells” (Frontiers in Oncology, 2021)
